Measurements taken from US11350582B2, “Plant varieties by application of endocides” (Stephen F. Austin State University, priority 2015, dated 2022).
Like-named read-outs stand apart in the source and are kept apart here.

Legend:
[1] = system: S. molesta; test: Phytotoxic analysis by pipet application on upper or lower leaf surface; type: in vivo, Salvinia molesta; details: for pest or weed control at 1 %: Salvinia molesta, topical, 72 h; for activity on upper or lower leaf surface applications: 1% solution, 72 hrs
Protocol: General Experimental Procedure: 4-Hydroxybenzoic and 3,4-dihydroxybenzoic acids and 14 of their analogs were purchased commercially. Each of 16 compounds were prepared as 5 mL experimental solutions with NANOPURE™ water at 1% concentration. A total of 102 healthy and untreated living type III plants of S. molesta (approximately 10 g in fresh weight each) were cultured and tested in 17 plastic containers (23×23 cm, 2.37 L) with six plants in each container in a greenhouse (30° C. during the day time and 20° C. at night). The first container served as the controls without any treatment, the plants in each of the other 16 containers were treated by one of the 16 testing compounds, respectively. The plants in each container were randomly classified into two groups evenly. For each plant in the first group, 10 μL of 1% experimental solution was applied by pipet on the upper surface of each blade of the six pairs of large floating leaves close to the terminal bud. For each plant in the second group, 10 μL of 1% experimental solution was applied by pipet on the lower surface of each blade of the six pairs of large floating leaves close to the terminal bud. The leaf surfaces were examined for damage and analyzed 72 hrs after the treatments.

[2] = system: Salvinia molesta; test: Greenhouse spray test on giant salvinia, living biomass; type: in vivo; details: 10 mL spray on three type III plants per container, day nine
Protocol: General Experimental Procedure: Observations of giant salvinia growth in a greenhouse were performed under 28 different treatment conditions and control conditions with NANOPURE™ water or 0.5% DYNE-AMIC® (methyl esters of C16-C18 fatty acids, polyalkyleneoxide modified polydimethylsiloxane, and alkylphenol ethoxylate 99%, (Helena, Collierville, Tenn., United States)) (v:v).
Materials—4-hydroxybenzoic acid (>95%, HPLC analysis) and 3,4-dihydroxybenzoic acid (>95%) were isolated from S. molesta matter using the method as described in (Li, Wang et al. 2013). Ethylparaben (>99%) was purchased from a commercial source. Each of 4-hydroxybenzoic acid, 3,4-dihydroxybenzoic acid, and ethylparaben were prepared as 50 mL experimental solutions with NANOPURE™ water at the concentration of 0.5, 1.0, 1.5, and 2.0%, respectively. 0.5, 1.0, 1.5, and 2.0% 4-hydroxybenzoic acid, 3,4-dihydroxybenzoic acid, and ethylparaben with 0.5% surfactant DYNE-AMIC® was also prepared as 50 mL experimental solutions with NANOPURE™ water. Mixtures of 4-hydroxybenzoic acid with 3,4-dihydroxybenzoic acid (2:1, w:w) were prepared as 50 mL experimental solutions with NANOPURE™ water at the total concentration of 0.5, 1.0, and 1.5%, respectively. 3,4-dihydroxybenzoic acid was mixed with ethylparaben (2:1, w:w) and prepared as 50 mL experimental solution with NANOPURE™ water at the total concentration of 0.5, 1.0, and 1.5%, respectively.
Bioassay—For each treatment, a total of nine healthy and untreated living plants of S. molesta (type III, the biomass of three plants weighs approximately 10 g) were cultured in tap water in three plastic containers severing as three replications (14×15 cm, 0.68 L) with three plants each in a greenhouse (30° C. during the day time and 20° C. at night). The three plants in each of the three containers per treatment were sprayed with 10 mL NANOPURE™ water, 0.5% DYNE-AMIC®, or the experimental solution. Plant growth and survival status were documented and photographed in each treatment on day nine after the treatment. Pairwise comparisons for all treatments (including Control) in living biomass were made using Tukey test at alpha=0.05, which was done using SAS (SAS 9.4).

[3] = 10 μL of 1% solution per blade, lower surface, read-out: Inhibition (%) Lower leaf Application
[4] = 10 μL of 1% solution per blade, upper surface, read-out: Inhibition (%) Upper leaf Application
[5] = read-out: Inhibition (%) Lower leaf Application, 10 μL of 1% solution per blade, lower surface
[6] = read-out: Inhibition (%) Upper leaf Application, 10 μL of 1% solution per blade, upper surface

O=C(O)c1ccc(O)c(O)c1O [2,3,4-Trihydroxybenzoic acid]
pest or weed control at 1 % [1, 3]: 11.1%
pest or weed control at 1 % [1, 4]: 44.5%

O=C(O)c1cccc(O)c1O [2,3-Dihydroxybenzoic acid]
pest or weed control at 1 % [1, 3]: 100%
pest or weed control at 1 % [1, 4]: > 85%

O=C(O)c1c(O)cc(O)cc1O [2,4,6-Trihydroxybenzoic acid]
activity on upper or lower leaf surface applications [1]: did not show any activities
pest or weed control at 1 % [1, 3]: 11.1%
pest or weed control at 1 % [1, 4]: 0%

O=C(O)c1ccc(O)cc1O [2,4-Dihydroxybenzoic acid]
pest or weed control at 1 % [1, 3]: 72.2%
pest or weed control at 1 % [1, 4]: > 85%

O=C(O)c1cc(O)ccc1O [2,5-Dihydroxybenzoic acid]
pest or weed control at 1 % [1, 3]: 11.1%
pest or weed control at 1 % [1, 4]: 52.8%

O=C(O)c1c(O)cccc1O [2,6-Dihydroxybenzoic acid]
pest or weed control at 1 % [1, 3]: 25%
pest or weed control at 1 % [1, 4]: 44.4%

O=C(O)c1ccccc1O [2-Hydroxybenzoic acid]
pest or weed control at 1 % [1, 3]: 100%
pest or weed control at 1 % [1, 4]: > 85%

O=C(O)c1cc(O)c(O)c(O)c1 [3,4,5-Trihydroxybenzoic acid]
activity on upper or lower leaf surface applications [1]: did not show any activities
pest or weed control at 1 % [1, 3]: 0%
pest or weed control at 1 % [1, 4]: 0%

O=C(O)c1cc(O)cc(O)c1 [3,5-Dihydroxybenzoic acid]
activity on upper or lower leaf surface applications [1]: did not show any activities
pest or weed control at 1 % [1, 3]: 0%
pest or weed control at 1 % [1, 4]: 0%

O=C(O)c1cccc(O)c1 [3-Hydroxybenzoic acid]
pest or weed control at 1 % [1, 3]: 66.7%
pest or weed control at 1 % [1, 4]: 36.1%

O=C(O)c1ccccc1 [Benzoic acid]
pest or weed control at 1 % [1, 5]: 100%
pest or weed control at 1 % [1, 6]: > 85%

CCOC(=O)c1ccc(O)cc1 [Ethylparaben, reference compound]
Living Biomass (mean ± s.d.) ([2]; total concentration 0.5%): 18.6 g
Living Biomass (mean ± s.d.) ([2]; total concentration 1.0%): 18.7 g
Living Biomass (mean ± s.d.) ([2]; total concentration 1.5%): 12.9 g
Living Biomass (mean ± s.d.) ([2]; total concentration 2.0%): 13.5 g

O=C(O)c1ccncc1 [Isonicotinic acid]
pest or weed control at 1 % [1, 3]: 33.3%
pest or weed control at 1 % [1, 4]: 44.5%

O=C(O)c1cccnc1 [Nicotinic acid]
activity on upper or lower leaf surface applications [1]: did not show any activities
pest or weed control at 1 % [1, 3]: 0%
pest or weed control at 1 % [1, 4]: 0%

O=C(O)COc1ccccc1 [Phenoxyacetic acid]
pest or weed control at 1 % [1, 5]: 16.7%
pest or weed control at 1 % [1, 6]: 77.8%
